For assay [1], the target named is Kappa-type opioid receptor (Homo sapiens, UniProt P41145). In words: (§1) Radioligand Dose-Displacement Binding Assay: Radioligand dose-displacement binding assays for u-opioid receptors used 0.3 nM [3H]-diprenorphine (Perkin Elmer, Shelton, Conn.), with […] in a final volume of 500 ul binding buffer (10 mM MgCl2, 1 mM EDTA, 5% DMSO, 50 mM HEPES, pH 7.4). Reactions were carried out in the absence or presence of increasing concentrations of unlabeled naloxone. All reactions were conducted in 96-deep well polypropylene plates for 2 hours at room temperature. Binding reactions were terminated by rapid filtration onto 96-well Unifilter GF/C filter plates (Perkin Elmer, Shelton, Conn.), presoaked in 0.5% polyethylenimine using a 96-well tissue harvester (Perkin Elmer, Shelton, Conn.) followed by performing three filtration washes with 500 ul of ice-cold binding buffer. Filter plates were subsequently dried at 50 C. for 2-3 hours. BetaScint scintillation cocktail (Perkin Elmer, Shelton, Conn.) was added (50 ul/well), and plates were counted using a Packard Top-Counter.
Kappa-type opioid receptor, sequence (P41145 whole entry): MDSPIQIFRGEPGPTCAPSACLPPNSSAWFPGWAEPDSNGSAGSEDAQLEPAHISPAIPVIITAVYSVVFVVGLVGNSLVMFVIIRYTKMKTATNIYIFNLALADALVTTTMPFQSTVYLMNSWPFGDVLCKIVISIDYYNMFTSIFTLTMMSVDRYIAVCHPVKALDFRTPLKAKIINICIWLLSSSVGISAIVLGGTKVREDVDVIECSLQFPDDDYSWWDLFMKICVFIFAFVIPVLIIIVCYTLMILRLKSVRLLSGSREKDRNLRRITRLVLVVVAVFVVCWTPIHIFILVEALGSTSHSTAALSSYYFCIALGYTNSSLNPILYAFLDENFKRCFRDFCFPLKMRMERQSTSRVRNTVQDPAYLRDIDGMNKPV

The target in assay [2] is Mu-type opioid receptor (Homo sapiens, UniProt P35372). The description is as §1.
Mu-type opioid receptor, sequence (P35372 whole entry): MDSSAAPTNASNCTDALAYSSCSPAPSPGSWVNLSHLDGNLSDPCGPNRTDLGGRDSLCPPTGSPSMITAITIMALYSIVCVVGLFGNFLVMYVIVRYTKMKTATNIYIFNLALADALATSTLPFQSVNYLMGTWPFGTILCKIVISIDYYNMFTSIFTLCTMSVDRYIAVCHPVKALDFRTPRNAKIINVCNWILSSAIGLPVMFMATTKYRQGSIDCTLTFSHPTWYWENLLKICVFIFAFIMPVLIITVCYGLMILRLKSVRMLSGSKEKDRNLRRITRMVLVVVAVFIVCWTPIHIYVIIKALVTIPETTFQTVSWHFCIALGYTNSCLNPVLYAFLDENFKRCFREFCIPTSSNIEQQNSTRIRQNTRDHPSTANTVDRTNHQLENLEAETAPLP

Here are results for two compounds from ChEMBL document CHEMBL3639236, “Nitrogen containing morphinan derivatives and the use thereof” (2015).

`COc1ccc(CN2C[C@H]3[C@H]4Cc5ccc(OC)cc5[C@@]3(CCN4CC3CC3)CC2=O)cc1`: in assay [1], the Ki turned out to be 0.411 µM.
With `COc1ccc(CN2C=C3[C@H]4Cc5ccc(OC)cc5[C@@]3(CCN4CC3CC3)CC2=O)cc1`, the inhibitory constant (Ki) turned out to be 0.0131 µM in assay [1] and 0.218 µM in assay [2].
